Experiment: xn = mol fraction of the nth substance listed
Conditions: 101 kPa

CCCC[n+]1ccn(C)c1.N#C[S-] + O
Conditions	electrical conductivity [S/m]	viscosity [mPa·s]
298.15 K, x1 = 0.0004503	0.224	–
298.15 K, x1 = 0.0009182	0.395	–
298.15 K, x1 = 0.001853	0.716	–
298.15 K, x1 = 0.00477	1.451	–
298.15 K, x1 = 0.00776	1.952	–
298.15 K, x1 = 0.01001	2.3	–
298.15 K, x2 = 0.2007	–	33
298.15 K, x2 = 0.3169	–	25.9
298.15 K, x2 = 0.9437	4.47	–
298.15 K, x2 = 0.9626	4.02	–
298.15 K, x2 = 0.9781	3.33	–
308.15 K, x2 = 0.2007	–	22.5
318.15 K, x2 = 0.2007	–	16.2
318.15 K, x2 = 0.3169	–	13.24
318.15 K, x2 = 0.7201	–	4.66
328.15 K, x2 = 0	–	16.7
328.15 K, x2 = 0.0998	–	14.22
328.15 K, x2 = 0.6426	–	4.71
328.15 K, x2 = 0.7201	–	3.65
338.15 K, x2 = 0.3169	–	7.96
338.15 K, x2 = 0.5296	–	5.12
338.15 K, x2 = 0.7949	–	2.23
348.15 K, x2 = 0.5296	–	4.16

NC(=O)CC[C@H](N)C(=O)O + CCCCCCCCCCCC[N+](C)(C)C.[Br-] + O
viscosity [mPa·s]
Conditions	293.15 K	298.15 K	303.15 K	308.15 K	313.15 K
x1 = 0.0001801, x2 = 0.0001083	1.02	0.908	0.822	0.738	0.667
x1 = 0.0001801, x2 = 0.0001624	1.024	0.911	0.824	0.74	0.67
x1 = 0.0001801, x2 = 0.0002165	1.028	0.913	0.825	0.742	0.672
x1 = 0.0001801, x2 = 0.0002706	1.036	0.914	0.827	0.744	0.674
x1 = 0.0001801, x2 = 0.0003247	1.045	0.917	0.828	0.745	0.676
x1 = 0.0001801, x2 = 0.0003788	1.051	0.921	0.832	0.747	0.677
x1 = 0.0001801, x2 = 0.0004328	1.057	0.926	0.835	0.749	0.68
x1 = 0.0001801, x2 = 0.0004869	1.062	0.932	0.837	0.754	0.683
x1 = 0.0001801, x2 = 0.000541	1.067	0.937	0.841	0.757	0.687
x1 = 0.0001802, x2 = 5.413e-05	1.018	0.905	0.819	0.735	0.666
x1 = 0.0008997, x2 = 0.0005438	1.057	0.91	0.821	0.751	0.678
x1 = 0.0008998, x2 = 0.0003807	1.045	0.898	0.81	0.739	0.668
x1 = 0.0008998, x2 = 0.0004351	1.051	0.902	0.814	0.743	0.67
x1 = 0.0008998, x2 = 0.0004894	1.053	0.906	0.818	0.747	0.674
x1 = 0.0008999, x2 = 0.000272	1.041	0.893	0.805	0.734	0.664
x1 = 0.0008999, x2 = 0.0003263	1.043	0.896	0.807	0.736	0.666
x1 = 0.0009, x2 = 0.0001632	1.036	0.889	0.801	0.729	0.66
x1 = 0.0009, x2 = 0.0002176	1.039	0.891	0.803	0.732	0.662
x1 = 0.0009001, x2 = 5.44e-05	1.033	0.884	0.797	0.725	0.655
x1 = 0.0009001, x2 = 0.0001088	1.035	0.886	0.799	0.727	0.657
x1 = 0.001798, x2 = 0.0001642	1.015	0.873	0.788	0.725	0.642
x1 = 0.001798, x2 = 0.000219	1.02	0.875	0.79	0.726	0.643
x1 = 0.001798, x2 = 0.0002737	1.025	0.878	0.792	0.728	0.645
x1 = 0.001798, x2 = 0.0003284	1.031	0.88	0.793	0.73	0.647
x1 = 0.001798, x2 = 0.0003831	1.034	0.885	0.797	0.732	0.648
x1 = 0.001798, x2 = 0.0004378	1.037	0.888	0.803	0.733	0.65
x1 = 0.001798, x2 = 0.0004925	1.039	0.892	0.807	0.736	0.653
x1 = 0.001798, x2 = 0.0005472	1.042	0.896	0.813	0.738	0.655
x1 = 0.001799, x2 = 5.475e-05	1.004	0.867	0.784	0.721	0.634
x1 = 0.001799, x2 = 0.0001095	1.01	0.87	0.785	0.722	0.639
